According to the NIST ThermoML archive (doi:10.1021/acs.jced.6b00121):

Assay: xn = mol fraction of the nth substance listed
Settings: 100 kPa, Liquid; for viscosity: Falling or rolling sphere viscometry; for mass density: Vibrating tube method

CCCCCCCCCCC [undecane] + CCCCO
Settings | mass density [kg/m3] | viscosity [mPa·s]
283.15 K, x1 = 0.1007 | 801.8 | 3.124
283.15 K, x1 = 0.2004 | 790.28 | 2.611
283.15 K, x1 = 0.299 | 781.12 | 2.24
283.15 K, x1 = 0.3981 | 773.6 | 1.939
283.15 K, x1 = 0.5006 | 767.02 | 1.722
283.15 K, x1 = 0.5964 | 761.98 | 1.582
283.15 K, x1 = 0.6982 | 757.32 | 1.471
283.15 K, x1 = 0.7979 | 753.51 | 1.416
283.15 K, x1 = 0.9 | 750.22 | 1.385
283.15 K, x1 = 1 | 747.78 | 1.371
288.15 K, x1 = 0.1007 | 798.03 | 2.731
288.15 K, x1 = 0.2004 | 786.48 | 2.294
288.15 K, x1 = 0.299 | 777.31 | 1.978
288.15 K, x1 = 0.3981 | 769.79 | 1.723
288.15 K, x1 = 0.5006 | 763.23 | 1.541
288.15 K, x1 = 0.5964 | 758.18 | 1.425
288.15 K, x1 = 0.6982 | 753.56 | 1.329
288.15 K, x1 = 0.7979 | 749.76 | 1.287
288.15 K, x1 = 0.9 | 746.49 | 1.26
288.15 K, x1 = 1 | 744.06 | 1.249
293.15 K, x1 = 0.1007 | 794.24 | 2.398
293.15 K, x1 = 0.2004 | 782.67 | 2.025
293.15 K, x1 = 0.299 | 773.49 | 1.755
293.15 K, x1 = 0.3981 | 765.96 | 1.54
293.15 K, x1 = 0.5006 | 759.41 | 1.387
293.15 K, x1 = 0.5964 | 754.38 | 1.29
293.15 K, x1 = 0.6982 | 749.77 | 1.212
293.15 K, x1 = 0.7979 | 746 | 1.176
293.15 K, x1 = 0.9 | 742.75 | 1.152
293.15 K, x1 = 1 | 740.35 | 1.145
298.15 K, x1 = 0.1007 | 790.42 | 2.115
298.15 K, x1 = 0.2004 | 778.83 | 1.795
298.15 K, x1 = 0.299 | 769.63 | 1.564
298.15 K, x1 = 0.3981 | 762.11 | 1.383
298.15 K, x1 = 0.5006 | 755.57 | 1.254
298.15 K, x1 = 0.5964 | 750.55 | 1.173
298.15 K, x1 = 0.6982 | 745.97 | 1.108
298.15 K, x1 = 0.7979 | 742.22 | 1.077
298.15 K, x1 = 0.9 | 739 | 1.058
298.15 K, x1 = 1 | 736.64 | 1.062
303.15 K, x1 = 0.1007 | 786.57 | 1.871
303.15 K, x1 = 0.2004 | 774.95 | 1.595
303.15 K, x1 = 0.299 | 765.75 | 1.392
303.15 K, x1 = 0.3981 | 758.22 | 1.248
303.15 K, x1 = 0.5006 | 751.7 | 1.139
303.15 K, x1 = 0.5964 | 746.69 | 1.071
303.15 K, x1 = 0.6982 | 742.14 | 1.016
303.15 K, x1 = 0.7979 | 738.42 | 0.991
303.15 K, x1 = 0.9 | 735.23 | 0.975
303.15 K, x1 = 1 | 732.93 | 0.982
308.15 K, x1 = 0.1007 | 782.69 | 1.663
308.15 K, x1 = 0.2004 | 771.05 | 1.426
308.15 K, x1 = 0.299 | 761.84 | 1.253
308.15 K, x1 = 0.3981 | 754.31 | 1.13
308.15 K, x1 = 0.5006 | 747.8 | 1.038
308.15 K, x1 = 0.5964 | 742.82 | 0.979
308.15 K, x1 = 0.6982 | 738.3 | 0.936
308.15 K, x1 = 0.7979 | 734.6 | 0.915
308.15 K, x1 = 0.9 | 731.45 | 0.902
308.15 K, x1 = 1 | 729.23 | 0.91
313.15 K, x1 = 0.1007 | 778.77 | 1.483
313.15 K, x1 = 0.2004 | 767.1 | 1.279
313.15 K, x1 = 0.299 | 757.88 | 1.131
313.15 K, x1 = 0.3981 | 750.36 | 1.028
313.15 K, x1 = 0.5006 | 743.87 | 0.95
313.15 K, x1 = 0.5964 | 738.91 | 0.901
313.15 K, x1 = 0.6982 | 734.42 | 0.864
313.15 K, x1 = 0.7979 | 730.76 | 0.847
313.15 K, x1 = 0.9 | 727.65 | 0.837
313.15 K, x1 = 1 | 725.53 | 0.847
318.15 K, x1 = 0.1007 | 774.8 | 1.326
318.15 K, x1 = 0.2004 | 763.11 | 1.152
318.15 K, x1 = 0.299 | 753.88 | 1.026
318.15 K, x1 = 0.3981 | 746.37 | 0.938
318.15 K, x1 = 0.5006 | 739.91 | 0.882
318.15 K, x1 = 0.5964 | 734.97 | 0.832
318.15 K, x1 = 0.6982 | 730.51 | 0.801
318.15 K, x1 = 0.7979 | 726.89 | 0.787
318.15 K, x1 = 0.9 | 723.83 | 0.779
318.15 K, x1 = 1 | 721.82 | 0.79
323.15 K, x1 = 0.1007 | 770.78 | 1.192
323.15 K, x1 = 0.2004 | 759.07 | 1.042
323.15 K, x1 = 0.299 | 749.84 | 0.934
323.15 K, x1 = 0.3981 | 742.34 | 0.858
323.15 K, x1 = 0.5006 | 735.91 | 0.804
323.15 K, x1 = 0.5964 | 731 | 0.771
323.15 K, x1 = 0.6982 | 726.58 | 0.749
323.15 K, x1 = 0.7979 | 722.99 | 0.733
323.15 K, x1 = 0.9 | 719.99 | 0.727
323.15 K, x1 = 1 | 718.11 | 0.74
328.15 K, x1 = 0.1007 | 766.71 | 1.074
328.15 K, x1 = 0.2004 | 754.97 | 0.945
328.15 K, x1 = 0.299 | 745.75 | 0.853
328.15 K, x1 = 0.3981 | 738.26 | 0.79
328.15 K, x1 = 0.5006 | 731.86 | 0.744
328.15 K, x1 = 0.5964 | 726.99 | 0.716
328.15 K, x1 = 0.6982 | 722.61 | 0.693
328.15 K, x1 = 0.7979 | 719.07 | 0.685
328.15 K, x1 = 0.9 | 716.13 | 0.68
328.15 K, x1 = 1 | 714.39 | 0.692
333.15 K, x1 = 0.1007 | 762.58 | 0.974
333.15 K, x1 = 0.2004 | 750.83 | 0.86
333.15 K, x1 = 0.299 | 741.61 | 0.782
333.15 K, x1 = 0.3981 | 734.14 | 0.729
333.15 K, x1 = 0.5006 | 727.78 | 0.69
333.15 K, x1 = 0.5964 | 722.94 | 0.667
333.15 K, x1 = 0.6982 | 718.61 | 0.647
333.15 K, x1 = 0.7979 | 715.12 | 0.641
333.15 K, x1 = 0.9 | 712.24 | 0.638
333.15 K, x1 = 1 | 710.68 | 0.651
338.15 K, x1 = 0.1007 | 758.39 | 0.882
338.15 K, x1 = 0.2004 | 746.61 | 0.785
338.15 K, x1 = 0.299 | 737.42 | 0.719
338.15 K, x1 = 0.3981 | 729.97 | 0.675
338.15 K, x1 = 0.5006 | 723.65 | 0.641
338.15 K, x1 = 0.5964 | 718.86 | 0.622
338.15 K, x1 = 0.6982 | 714.57 | 0.606
338.15 K, x1 = 0.7979 | 711.13 | 0.602
338.15 K, x1 = 0.9 | 708.34 | 0.601
338.15 K, x1 = 1 | 706.95 | 0.615
343.15 K, x1 = 0.1007 | 754.12 | 0.802
343.15 K, x1 = 0.2004 | 742.34 | 0.72
343.15 K, x1 = 0.299 | 733.15 | 0.663
343.15 K, x1 = 0.3981 | 725.75 | 0.626
343.15 K, x1 = 0.5006 | 719.48 | 0.598
343.15 K, x1 = 0.5964 | 714.72 | 0.582
343.15 K, x1 = 0.6982 | 710.49 | 0.569
343.15 K, x1 = 0.7979 | 707.12 | 0.566
343.15 K, x1 = 0.9 | 704.41 | 0.567
343.15 K, x1 = 1 | 703.22 | 0.58
348.15 K, x1 = 0.1007 | 749.78 | 0.732
348.15 K, x1 = 0.2004 | 738.01 | 0.662
348.15 K, x1 = 0.299 | 728.84 | 0.614
348.15 K, x1 = 0.3981 | 721.47 | 0.583
348.15 K, x1 = 0.5006 | 715.24 | 0.56
348.15 K, x1 = 0.5964 | 710.54 | 0.546
348.15 K, x1 = 0.6982 | 706.38 | 0.535
348.15 K, x1 = 0.7979 | 703.07 | 0.534
348.15 K, x1 = 0.9 | 700.47 | 0.536
348.15 K, x1 = 1 | 699.47 | 0.549
353.15 K, x1 = 0.1007 | 745.37 | 0.671
353.15 K, x1 = 0.2004 | 733.6 | 0.611
353.15 K, x1 = 0.299 | 724.46 | 0.57
353.15 K, x1 = 0.3981 | 717.14 | 0.544
353.15 K, x1 = 0.5006 | 710.97 | 0.525
353.15 K, x1 = 0.5964 | 706.32 | 0.514
353.15 K, x1 = 0.6982 | 702.22 | 0.506
353.15 K, x1 = 0.7979 | 698.99 | 0.505
353.15 K, x1 = 0.9 | 696.51 | 0.508
353.15 K, x1 = 1 | 695.72 | 0.522
358.15 K, x1 = 0.1007 | 740.87 | 0.617
358.15 K, x1 = 0.2004 | 729.1 | 0.565
358.15 K, x1 = 0.299 | 720.01 | 0.531
358.15 K, x1 = 0.3981 | 712.73 | 0.51
358.15 K, x1 = 0.5006 | 706.63 | 0.493
358.15 K, x1 = 0.5964 | 702.04 | 0.485
358.15 K, x1 = 0.6982 | 698.02 | 0.477
358.15 K, x1 = 0.7979 | 694.88 | 0.479
358.15 K, x1 = 0.9 | 692.52 | 0.483
358.15 K, x1 = 1 | 691.96 | 0.497
363.15 K, x1 = 0.1007 | 736.28 | 0.569
363.15 K, x1 = 0.2004 | 724.55 | 0.525
363.15 K, x1 = 0.299 | 715.49 | 0.497
363.15 K, x1 = 0.3981 | 708.28 | 0.479
363.15 K, x1 = 0.5006 | 702.24 | 0.465
363.15 K, x1 = 0.5964 | 697.72 | 0.458
363.15 K, x1 = 0.6982 | 693.78 | 0.452
363.15 K, x1 = 0.7979 | 690.73 | 0.455
363.15 K, x1 = 0.9 | 688.52 | 0.46
363.15 K, x1 = 1 | 688.18 | 0.475
